From US20110230403A1, “GLYCOSIDE DERIVATIVES AND USES THEREOF” (NOVARTIS AG, priority 2008, published 2011)

Key:
[1] = target: T1, human sodium glucose cotransporter 2 (Homo sapiens, UniProt P31639); test: SGLT-2 assay: 14C-AMG uptake in CHO-hSGLT2 or HEK293-hSGLT2 cells; type: cell-based; conditions: n = 1-4, hSGLT2-transfected cells, read-out: SGLT2 IC50 nM (n = 1-4)
T1 construct: expressed in transfected cells; host or cells: CHO-K1 (ATCC CCL-61) or HEK293 (ATCC CRL-1573), stably transfected with pZeoSV expression vector
T1 sequence (P31639 1-672): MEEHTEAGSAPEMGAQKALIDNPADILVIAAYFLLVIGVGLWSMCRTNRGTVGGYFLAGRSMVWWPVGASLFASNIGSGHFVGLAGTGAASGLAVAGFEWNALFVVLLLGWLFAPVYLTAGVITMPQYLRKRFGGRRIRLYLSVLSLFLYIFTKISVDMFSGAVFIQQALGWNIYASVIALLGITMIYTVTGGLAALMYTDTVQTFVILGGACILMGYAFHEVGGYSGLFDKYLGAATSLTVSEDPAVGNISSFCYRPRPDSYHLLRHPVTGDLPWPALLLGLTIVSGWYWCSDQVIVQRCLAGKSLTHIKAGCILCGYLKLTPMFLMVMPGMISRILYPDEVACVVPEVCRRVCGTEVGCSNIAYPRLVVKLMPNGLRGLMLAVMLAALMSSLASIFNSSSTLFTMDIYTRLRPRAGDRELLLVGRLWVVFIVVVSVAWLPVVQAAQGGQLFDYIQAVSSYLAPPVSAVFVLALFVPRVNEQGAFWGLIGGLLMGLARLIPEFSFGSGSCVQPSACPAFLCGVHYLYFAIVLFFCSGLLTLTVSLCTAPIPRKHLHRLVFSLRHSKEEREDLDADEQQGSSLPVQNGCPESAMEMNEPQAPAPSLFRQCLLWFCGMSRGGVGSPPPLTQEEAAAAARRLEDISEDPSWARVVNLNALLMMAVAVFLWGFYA
Method: These cell lines transport 14 C-labelled alpha-methyl-glucopyranoside (14 C-AMG, Amersham) into the interior of the cell in sodium-dependent manner.
The SGLT-2 assay is carried out as follows: CHO-hSGLT2 cells are cultivated in Ham's F12 Medium (BioWhittaker) with 10% foetal calf serum and 250 μg/mL zeocin (Invitrogen), and HEK293-hSGLT2 cells are cultivated in DMEM medium with 10% foetal calf serum and 250 μg/mL zeocin (Invitrogen). The cells are detached from the culture flasks by washing twice with PBS and subsequently treating with trypsin/EDTA. After the addition of cell culture medium the cells are centrifuged, resuspended in culture medium and counted in a Casy cell counter. Then 40,000 cells per well are seeded into a white, 96-well plate coated with poly-D-Iysine and incubated overnight at 37° C., 5% CO2. The cells are washenwice with 250 μl of assay buffer (Hanks Balanced Salt Solution, 137 mM NaCl, 5.4 mM KCl, 2.8 mM CaCl2, 1.2 mM MgSO4 and 10 mM HEPES (pH 7.4), 50 μg/mL of gentamycin). 250 μl of assay buffer and 5 μl of test compound are then added to each well and the plate is incubated for a further 15 minutes in the incubator. 5 μl of 10% DMSO are used as the negative control. The reaction is started by adding 5 μl of 14 C-AMG (0.05 μCi) to each well. After 2 hours' incubation at 37° C., 5% CO2, the cells are washed again with 250 μl of PBS (200C) and then lysed by the addition of 25 μl of 0.1 N NaOH (5 min. at 37° C.). 200 μl of MicroScint20 (Packard) are added to each well and incubation is continued for a further 20 min at 37° C. After this incubation the radioactivity of the 14 C-AMG absorbed is measured in a Topcount (Packard) using a 14 C scintillation program.

human SGLT1 = target: T2, human SGLT1 (Homo sapiens, UniProt P13866); test: hSGLT1 assay: analogous [14C]-AMG uptake in CHO-K1 or HEK293 cells expressing hSGLT1; type: cell-based; conditions: n = 1-4, hSGLT1-transfected cells
T2 construct: expressed in transfected cells; host or cells: CHO-K1 or HEK293 cells
T2 sequence (P13866 1-664): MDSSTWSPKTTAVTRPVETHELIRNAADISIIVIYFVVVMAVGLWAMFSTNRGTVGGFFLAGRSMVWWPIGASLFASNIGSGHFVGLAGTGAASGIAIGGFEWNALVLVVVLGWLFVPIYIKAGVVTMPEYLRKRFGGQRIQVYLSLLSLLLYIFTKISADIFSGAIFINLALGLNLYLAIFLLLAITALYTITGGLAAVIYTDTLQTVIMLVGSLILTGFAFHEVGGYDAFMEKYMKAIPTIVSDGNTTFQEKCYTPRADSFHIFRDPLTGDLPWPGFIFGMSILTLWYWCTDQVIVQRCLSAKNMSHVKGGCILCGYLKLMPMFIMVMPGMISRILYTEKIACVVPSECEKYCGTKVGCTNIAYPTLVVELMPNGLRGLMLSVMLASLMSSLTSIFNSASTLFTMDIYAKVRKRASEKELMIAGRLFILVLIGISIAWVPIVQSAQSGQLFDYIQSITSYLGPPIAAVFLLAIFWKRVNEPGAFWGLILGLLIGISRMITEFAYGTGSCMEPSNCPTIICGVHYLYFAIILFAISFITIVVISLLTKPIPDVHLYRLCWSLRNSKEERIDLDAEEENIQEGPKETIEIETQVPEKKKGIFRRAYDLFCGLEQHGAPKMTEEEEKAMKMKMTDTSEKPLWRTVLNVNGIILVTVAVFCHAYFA
Method: To determine human SGLT1 inhibitory activity, an analogous test was set up in which the cDNA for hSGLTI (Genbank Ace. No. NM000343) instead of hSGLT2 cDNA is expressed in CHO-K1 or HEK293 cells. The uptake assay buffer in the case of the hSGLT1 assay contains 10 mM HEPES, 5 mM Tris, 140 mM NaCl, 2 mM KCl, 1 mM CaCl2, and 1 mM MgCl2, pH 7.4 containing 0.5 mM of α-methyl-D-glucopyranoside (AMG), 10 μM of [^14C]-α-methyl-D-glucopyranoside and different inhibitor concentrations.

Structure (SMILES)	IC50 [1]	IC50 (human SGLT1)
CCOc1ccc(Cc2cc([C@@H]3O[C@H](CSc4cccs4)[C@@H](O)[C@H](O)[C@H]3O)ccc2Cl)cc1 [Example 11, (2S,3R,4R,5S,6S)-2-[4-Chloro-3-(4-ethoxy-benzyl)-phenyl]-6-(thiophen-2-ylsulfanylmethyl)-tetrahydro-pyran-3,4,5-triol]	60 nM	< 1000 nM
CCOc1ccc(Cc2cc([C@@H]3O[C@H](CSc4ccccc4C(N)=O)[C@@H](O)[C@H](O)[C@H]3O)ccc2Cl)cc1 [Example 24, 2-{(2S,3S,4R,5R,6S)-6-[4-Chloro-3-(4-ethoxy-benzyl)-phenyl]-3,4,5-trihydroxy-tetrahydro-pyran-2-ylmethylsulfanyl}-benzamide]	57 nM	
CCOc1ccc(Cc2cc([C@@H]3O[C@H](CSc4ncccn4)[C@@H](O)[C@H](O)[C@H]3O)ccc2Cl)cc1 [Example 8, (2S,3R,4R,5S,6S)-2-[4-Chloro-3-(4-ethoxy-benzyl)-phenyl]-6-(pyrimidin-2-ylsulfanylmethyl)-tetrahydro-pyran-3,4,5-triol]	85 nM	
CCOc1ccc(Cc2cc([C@@H]3O[C@H](CSc4cccc(CO)c4)[C@@H](O)[C@H](O)[C@H]3O)ccc2Cl)cc1 [Example 77, (2S,3R,4R,5S,6S)-2-[4-Chloro-3-(4-ethoxy-benzyl)-phenyl]-6-(3-hydroxymethyl-phenylsulfanylmethyl)-tetrahydro-pyran-3,4,5-triol]	61 nM	
CCOc1ccc(Cc2cc([C@@H]3O[C@H](CSc4cccc(NC(=O)OC)c4)[C@@H](O)[C@H](O)[C@H]3O)ccc2Cl)cc1 [Example 69]	28 nM	
CCOc1ccc(Cc2cc([C@@H]3O[C@H](CSc4ccccc4CO)[C@@H](O)[C@H](O)[C@H]3O)ccc2Cl)cc1 [Example 23, (2S,3R,4R,5S,6S)-2-[4-Chloro-3-(4-ethoxy-benzyl)-phenyl]-6-(2-hydroxymethyl-phenylsulfanylmethyl)-tetrahydro-pyran-3,4,5-triol]	36 nM	
CCOc1ccc(Cc2cc([C@@H]3O[C@H](COc4cccc(C(=O)NC)c4)[C@@H](O)[C@H](O)[C@H]3O)ccc2Cl)cc1 [Example 83, 3-{(2R,3S,4R,5R,6S)-6-[4-Chloro-3-(4-ethoxy-benzyl)-phenyl]-3,4,5-trihydroxy-tetrahydro-pyran-2-ylmethoxy}-N-methyl-benzamide]	72 nM	
CCOc1ccc(Cc2cc([C@@H]3O[C@H](CSc4nc5ccccc5[nH]4)[C@@H](O)[C@H](O)[C@H]3O)ccc2Cl)cc1 [Example 15, (2S,3S,4R,5R,6S)-2-(1H-Benzoimidazol-2-ylsulfanylmethyl)-6-[4-chloro-3-(4-ethoxy-benzyl)-phenyl]-tetrahydro-pyran-3,4,5-triol]	65 nM	

The remaining compounds from weak to strong by IC50 [1], led by results:

IC50 [1]	IC50 (human SGLT1)	Structure (SMILES)
28 nM		CCOc1ccc(Cc2cc([C@@H]3O[C@H](CSc4ccc(NC(C)=O)cc4)[C@@H](O)[C@H](O)[C@H]3O)ccc2Cl)cc1 [Example 61, N-(4-{(2S,3S,4R,6R,6S)-6-[4-Chloro-3-(4-ethoxy-benzyl)-phenyl]-3,4,6-trihydroxy-tetrahydro-pyran-2-ylmethylsulfanyl}-phenyl)-acetamide]
13 nM	< 50 nM	CCOc1ccc(Cc2cc([C@@H]3O[C@H](CSc4cccc(C(=O)NC)c4)[C@@H](O)[C@H](O)[C@H]3O)ccc2Cl)cc1 [Example 40, 3-{(2S,3S,4R,5R,6S)-6-[4-Chloro-3-(4-ethoxy-benzyl)-phenyl]-3,4,5-trihydroxy-tetrahydro-pyran-2-ylmethylsulfanyl}-N-methyl-benzamide]
13 nM	< 100 nM	CCOc1ccc(Cc2cc([C@@H]3O[C@H](CSc4cccc(NC(C)=O)c4)[C@@H](O)[C@H](O)[C@H]3O)ccc2Cl)cc1 [Example 80, N-(3-{(2S,3S,4R,5R,6S)-6-[4-Chloro-3-(4-ethoxy-benzyl)-phenyl]-3,4,5-trihydroxy-tetrahydro-pyran-2-ylmethylsulfanyl}-phenyl)-acetamide]
12 nM	< 50 nM	CCOc1ccc(Cc2cc([C@@H]3O[C@H](CSc4cc(C(N)=O)ccc4F)[C@@H](O)[C@H](O)[C@H]3O)ccc2Cl)cc1 [Example 26]
11 nM		CCOc1ccc(Cc2cc([C@@H]3O[C@H](COc4cccc(C(=O)N5CCCC5)c4)[C@@H](O)[C@H](O)[C@H]3O)ccc2Cl)cc1 [Example 84, (3-{(2R,3S,4R,5R,6S)-6-[4-Chloro-3-(4-ethoxy-benzyl)-phenyl]-3,4,5-trihydroxy-tetrahydro-pyran-2-ylmethoxy}-phenyl)-pyrrolidin-1-yl-methanone]
9 nM		CCOc1ccc(Cc2cc([C@@H]3O[C@H](COc4cccc(C(=O)N5CCC5)c4)[C@@H](O)[C@H](O)[C@H]3O)ccc2Cl)cc1 [Example 85]
9 nM		CCOc1ccc(Cc2cc([C@@H]3O[C@H](CSc4cccc(NC(=O)CC)c4)[C@@H](O)[C@H](O)[C@H]3O)ccc2Cl)cc1 [Example 67, N-(3-{(2S,3S,4R,5R,6S)-6-[4-Chloro-3-(4-ethoxy-benzyl)-phenyl]-3,4,5-trihydroxy-tetrahydro-pyran-2-ylmethylsulfanyl}-phenyl)-propionamide]
8 nM	< 50 nM	CCOc1ccc(Cc2cc([C@@H]3O[C@H](CSc4cccc(C(=O)N(C)C)c4)[C@@H](O)[C@H](O)[C@H]3O)ccc2Cl)cc1 [Example 50, 3-{(2S,3S,4R,5R,6S)-6-[4-Chloro-3-(4-ethoxy-benzyl)-phenyl]-3,4,5-trihydroxy-tetrahydro-pyran-2-ylmethylsulfanyl}-N,N-dimethyl-benzamide]
7 nM	< 50 nM	CCOc1ccc(Cc2cc([C@@H]3O[C@H](CSc4cc(NC(C)=O)ccc4F)[C@@H](O)[C@H](O)[C@H]3O)ccc2Cl)cc1 [Example 25, N-(3-{(2S,3S,4R,5R,6S)-6-[4-Chloro-3-(4-ethoxy-benzyl)-phenyl]-3,4,5-trihydroxy-tetrahydro-pyran-2-ylmethylsulfanyl}-4-fluoro-phenyl)-acetamide]
6 nM		CCOc1ccc(Cc2cc([C@@H]3O[C@H](CSc4cc(C(=O)N5CCCC5)ccc4F)[C@@H](O)[C@H](O)[C@H]3O)ccc2Cl)cc1 [Example 36, (3-{(2S,3S,4R,6R,6S)-6-[4-Chloro-3-(4-ethoxy-benzyl)-phenyl]-3,4,5-trihydroxy-tetrahydro-pyran-2-ylmethylsulfanyl}-4-fluoro-phenyl)-pyrrolidin-1-yl-methanone]
